Test results: ChEMBL document CHEMBL1150641, “Bryoanthrathiophene, a new antiangiogenic constituent from the bryozoan Watersipora subtorquata (d'Orbigny, 1852)” (J Nat Prod, 2002)

How the values were obtained:
[1] = Antiangiogenic activity against BAEC assessed as inhibition of bFGF-induced cell proliferation in presence of 10% fetal bovine serum after 3 days by MTT assay; format: functional, Bos taurus
[2] = Antiangiogenic activity against BAEC assessed as inhibition of bFGF-induced cell proliferation after 3 days by MTT assay; format: functional, Bos taurus
[3] = tested on: BAEC; assay: Reduction of tube formation in bFGF-induced BAEC at 20 nM by Matrigel based tube formation assay; format: functional, cell-based; details: Bos taurus, TDE = time-dependent effect

SMILES | IC50 [1] [µM] | IC50 [2] [µM] | Activity [3]
COC(=O)c1sc2ccc(O)c3c2c1-c1cccc(O)c1C3=O | 25.8 | 2.2 | 
Cc1sc2ccc(O)c3c2c1-c1cccc(O)c1C3=O [BRYOANTHRATHIOPHENE] | 0.22 | 0.005 | tde
O=C1c2cccc(O)c2C(=O)c2c(O)cccc21 [DANTHRON] | 20.1 | 5.7 | 
